Assay results from patent US20050004126A1 (priority 2001, published 2005).

target: MMP-13CD (catalytic domain of collagenase 3) (Homo sapiens, UniProt P45452); assay: Thiopeptolide hydrolysis assay, MMP-13; details: MMP13 IC50 μM, Table IVb;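 further: inhibition of enzymatic thiopeptolide substrate cleavage (100 µM) in pH 6.0 MES buffer with CaCl2 and DTNB, comparing hydrolysis with versus without inhibitor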

Row | Structure (SMILES) | IC50
1 | CCn1c(=O)n(Cc2cccc(F)c2)c(=O)c2cc(C(=O)NCc3ccncc3)ccc21 | 0.1 µM
2 | CCn1c(=O)n(Cc2cccc(F)c2)c(=O)c2cc(C(=O)NCc3cccnc3)ccc21 | 0.36 µM
3 | COc1ccc(CNC(=O)c2ccc3c(c2)c(=O)n(CCCc2ccccc2)c(=O)n3C)cc1 | 0.59 µM
4 | COc1ccc(CNC(=O)c2ccc3c(c2)c(=O)n(Cc2ccc(S(N)(=O)=O)cc2)c(=O)n3C)cc1 | 0.008 µM
5 | COc1ccc(CNC(=O)c2ccc3c(c2)c(=O)n(C/C=C/c2cccnc2)c(=O)n3C)cc1 | 0.095 µM
6 | COc1ccc(CNC(=O)c2ccc3c(c2)c(=O)n(C/C=C/c2ccncc2)c(=O)n3C)cc1 | 0.035 µM
7 | COc1ccc(CNC(=O)c2ccc3c(c2)c(=O)n(CC2CCCN(C)C2)c(=O)n3C)cc1 (stereo not shown) | 5.4 µM
8 | COc1ccc(CNC(=O)c2ccc3c(c2)c(=O)n(CCN2CCOCC2)c(=O)n3C)cc1 | 9.3 µM
9 | CNS(=O)(=O)c1ccc(Cn2c(=O)c3cc(C(=O)NCc4ccc(OC)cc4)ccc3n(C)c2=O)cc1 | 0.0044 µM
10 | COc1ccc(CNC(=O)c2ccc3c(c2)c(=O)n(Cc2ccc([N+](=O)[O-])cc2)c(=O)n3C)cc1 | 0.014 µM
11 | COc1ccc(CNC(=O)c2ccc3c(c2)c(=O)n(Cc2ccc(C4(C(=O)O)CC4)cc2)c(=O)n3C)cc1 | 0.0033 µM
12 | COc1ccc(CNC(=O)c2ccc3c(c2)c(=O)n(CC2CCCCC2)c(=O)n3C)cc1 | 0.042 µM
13 | COc1ccc(CNC(=O)c2ccc3c(c2)c(=O)n(CC2CC2)c(=O)n3C)cc1 | 0.95 µM
14 | COc1ccc(CNC(=O)c2ccc3c(c2)c(=O)n(CCO)c(=O)n3C)cc1 | 6.35 µM
15 | COCCn1c(=O)c2cc(C(=O)NCc3ccc(OC)cc3)ccc2n(C)c1=O | 1.35 µM
16 | CCN(CC)c1ccc(C(=O)Cn2c(=O)c3cc(C(=O)NCc4ccc(OC)cc4)ccc3n(C)c2=O)cc1 | 3.64 µM
17 | COc1ccc(CNC(=O)c2ccc3c(c2)c(=O)n(Cc2ccc(F)c(Cl)c2)c(=O)n3C)cc1 | 0.012 µM
18 | COc1ccc(CNC(=O)c2ccc3c(c2)c(=O)n(Cc2cccc(C#N)c2)c(=O)n3C)cc1 | 0.027 µM
19 | COc1cc(CNC(=O)c2ccc3c(c2)c(=O)n(Cc2cccc(F)c2)c(=O)n3C)ccn1 | 0.0058 µM
20 | Cn1c(=O)n(Cc2cccc(F)c2)c(=O)c2cc(C(=O)NCc3cccnc3)ccc21 | 0.067 µM
21 | COc1ccc(CNC(=O)c2ccc3c(c2)c(=O)n(Cc2cccc(F)c2)c(=O)n3C)cc1 | 0.0079 µM
22 | COc1cccc(CNC(=O)c2ccc3c(c2)c(=O)n(Cc2cccc(F)c2)c(=O)n3C)c1 | 0.021 µM

Row | Structure (SMILES) | IC50
23 | COc1ccc(CNC(=O)c2ccc3c(c2)c(=O)n(Cc2cccc(OC)c2)c(=O)n3C)cc1 | 0.023 µM
24 | Cn1c(=O)n(Cc2ccc(F)c(Cl)c2)c(=O)c2cc(C(=O)NCc3ccncc3)ccc21 | 0.026 µM
25 | Cn1c(=O)n(Cc2ccc(F)c(F)c2)c(=O)c2cc(C(=O)NCc3cccnc3)ccc21 | 0.067 µM
26 | Cn1c(=O)n(Cc2ccc(F)c(F)c2)c(=O)c2cc(C(=O)NCc3ccncc3)ccc21 | 0.032 µM
27 | COc1ccc(CNC(=O)c2ccc3c(c2)c(=O)n(Cc2ccc(F)c(F)c2)c(=O)n3C)cc1 | 0.0098 µM
28 | COc1ccc(CNC(=O)c2ccc3c(c2)c(=O)n(Cc2ccc(N)cc2)c(=O)n3C)cc1 | 0.0093 µM
29 | COc1ccc(CNC(=O)c2ccc3c(c2)c(=O)n(Cc2ccc(Br)cc2)c(=O)n3C)cc1 | 0.013 µM
30 | COc1cc(CNC(=O)c2ccc3c(c2)c(=O)n(Cc2ccc(Br)cc2)c(=O)n3C)ccn1 | 0.0076 µM
31 | COc1cccc(CNC(=O)c2ccc3c(c2)c(=O)n(Cc2ccc(Cl)cc2)c(=O)n3C)c1 | 0.0043 µM
32 | COc1cc(CNC(=O)c2ccc3c(c2)c(=O)n(Cc2ccc(Cl)cc2)c(=O)n3C)ccn1 | 0.011 µM
33 | Cn1c(=O)n(Cc2ccc(Cl)cc2)c(=O)c2cc(C(=O)NCc3cccnc3)ccc21 | 0.093 µM
34 | Cn1c(=O)n(Cc2ccc(Cl)cc2)c(=O)c2cc(C(=O)NCc3ccncc3)ccc21 | 0.053 µM
35 | COc1ccc(CNC(=O)c2ccc3c(c2)c(=O)n(Cc2ccc(C#N)cc2)c(=O)n3C)cc1 | 0.008 µM
36 | COc1ccc(CNC(=O)c2ccc3c(c2)c(=O)n(Cc2ccc(C(=O)N(C)C)cc2)c(=O)n3C)cc1 | 0.012 µM
37 | COc1ccc(CNC(=O)c2ccc3c(c2)c(=O)n(Cc2ccc(CC(=O)N(C)C)cc2)c(=O)n3C)cc1 | 0.008 µM
38 | COc1ccc(CNC(=O)c2ccc3c(c2)c(=O)n(Cc2ccc(S(=O)(=O)N(C)C)cc2)c(=O)n3C)cc1 | 0.007 µM
39 | Cn1c(=O)n(Cc2ccc(F)cc2)c(=O)c2cc(C(=O)NCc3ccncc3)ccc21 | 0.071 µM
40 | COc1cc(CNC(=O)c2ccc3c(c2)c(=O)n(Cc2ccc(F)cc2)c(=O)n3C)ccn1 | 0.011 µM
41 | COc1cccc(CNC(=O)c2ccc3c(c2)c(=O)n(Cc2ccc(F)cc2)c(=O)n3C)c1 | 0.0046 µM
42 | Cn1c(=O)n(Cc2ccc(F)cc2)c(=O)c2cc(C(=O)NCc3cccnc3)ccc21 | 0.12 µM
43 | COc1ccc(CNC(=O)c2ccc3c(c2)c(=O)n(Cc2ccc(F)cc2)c(=O)n3C)cc1 | 0.0145 µM
44 | COc1ccc(CNC(=O)c2ccc3c(c2)c(=O)n(Cc2ccc(S(C)(=O)=O)cc2)c(=O)n3C)cc1 | 0.0125 µM

Row | Structure (SMILES) | IC50
45 | COc1ccc(CNC(=O)c2ccc3c(c2)c(=O)n(Cc2ccc(S(=O)(=O)NCCN(C)C)cc2)c(=O)n3C)cc1 | 0.055 µM
46 | COc1ccc(CNC(=O)c2ccc3c(c2)c(=O)n(Cc2cccc(C(=O)O)c2)c(=O)n3C)cc1 | 0.018 µM
47 | Cn1c(=O)n(Cc2ccc(C(=O)O)cc2)c(=O)c2cc(C(=O)NCc3ccc(O)cc3)ccc21 | 0.002 µM
48 | COc1ccc(CNC(=O)c2ccc3c(c2)c(=O)n(CC=CC(=O)O)c(=O)n3C)cc1 | 1.4 µM
49 | COc1ccc(CNC(=O)c2ccc3c(c2)c(=O)n(CCCC(=O)O)c(=O)n3C)cc1 | 1.15 µM
50 | COc1ccc(CNC(=O)c2ccc3c(c2)c(=O)n(Cc2ccc(C(=O)OCOC(=O)C(NC(=O)C(N)C(C)C)C(C)C)cc2)c(=O)n3C)cc1 (stereo not shown) | 0.039 µM
51 | COc1ccc(CNC(=O)c2ccc3c(c2)c(=O)n(Cc2ccc(C(=O)OCCN(C)C)cc2)c(=O)n3C)cc1 | 0.037 µM
52 | COc1ccc(CNC(=O)c2ccc3c(c2)c(=O)n(Cc2ccc(C(=O)OCC(=O)OC(C)(C)C)cc2)c(=O)n3C)cc1 | 0.088 µM
53 | COc1ccc(CNC(=O)c2ccc3c(c2)c(=O)n(Cc2ccc(C(=O)O)s2)c(=O)n3C)cc1 | 0.0084 µM
54 | COc1ccc(CNC(=O)c2ccc3c(c2)c(=O)n(Cc2ccc(C(=O)O)o2)c(=O)n3C)cc1 | 0.057 µM
55 | CCOC(=O)CCCn1c(=O)c2cc(C(=O)NCc3ccc(OC)cc3)ccc2n(C)c1=O | 2.55 µM
56 | CCOC(=O)Cn1c(=O)c2cc(C(=O)NCc3ccc(OC)cc3)ccc2n(C)c1=O | 0.65 µM
57 | COC(=O)c1cccc(Cn2c(=O)c3cc(C(=O)NCc4ccc(OC)cc4)ccc3n(C)c2=O)c1 | 0.12 µM
58 | COC(=O)CCn1c(=O)c2cc(C(=O)NCc3ccc(OC)cc3)ccc2n(C)c1=O | 2.1 µM
59 | COC(=O)c1ccc(Cn2c(=O)c3cc(C(=O)NCc4ccc(OC)cc4)ccc3n(C)c2=O)o1 | 0.29 µM
60 | COC(=O)c1ccc(Cn2c(=O)c3cc(C(=O)NCc4ccc(OC)cc4)ccc3n(C)c2=O)s1 | 0.021 µM
61 | COC(=O)Cc1ccc(Cn2c(=O)c3cc(C(=O)NCc4ccc(OC)cc4)ccc3n(C)c2=O)cc1 | 0.0034 µM
62 | COc1ccc(CNC(=O)c2ccc3c(c2)c(=O)n(Cc2ccc(CC(=O)O)cc2)c(=O)n3C)cc1 | 0.0022 µM
63 | COC(=O)/C=C/Cn1c(=O)c2cc(C(=O)NCc3ccc(OC)cc3)ccc2n(C)c1=O | 0.315 µM
64 | COc1ccc(CNC(=O)c2ccc3c(c2)c(=O)n(Cc2ccc(C4(C(=O)OC(C)(C)C)CC4)cc2)c(=O)n3C)cc1 | 0.0665 µM

same assay, conditions: MMP13 IC50 (nM), Table II

Row | Structure (SMILES) | IC50
65 | CC(=O)Nc1ccc(C(=O)NCc2ccc3c(c2)OCO3)cc1C(=O)NCc1ccc2c(c1)OCO2 | 5.2 µM
66 | Nc1ccc(C(=O)NCc2ccc3c(c2)OCO3)cc1C(=O)NCc1ccc2c(c1)OCO2 | 4.1 µM
67 | CCOc1ccc(C(=O)NCc2cccc(OC)c2)cc1C(=O)NCc1cccc(OC)c1 | 1.83 µM
68 | COc1ccc(CNC(=O)c2ccc(OC)c(C(=O)NCc3ccncc3)c2)cc1 | 1.5 µM
69 | COc1ccc(C(=O)NCc2ccc3c(c2)OCO3)cc1C(=O)NCCOc1ccccc1 | 4.4 µM
70 | COc1ccc(C(=O)NCc2ccccc2)cc1C(=O)NCCOc1ccccc1 | 8.7 µM
71 | COc1ccc(CNC(=O)c2ccc(OC)c(C(=O)NCc3ccccc3)c2)cc1 [listing 1 of 2 here] | 0.43 µM
72 | COc1cccc(CNC(=O)c2cccc(C(=O)NCc3cccc([N+](=O)[O-])c3)c2)c1 | 2.1 µM
73 | O=C(NCc1ccncc1)c1cccc(C(=O)NCc2ccc(Cl)c(Cl)c2)c1 | 2.5 µM
74 | COc1ccc(C(=O)NCCOc2ccccc2)cc1C(=O)NCc1ccc2c(c1)OCO2 | 3.1 µM
75 | CCOCCNC(=O)c1ccc(OC)c(C(=O)NCc2ccc3c(c2)OCO3)c1 | 5.7 µM
76 | COc1ccc(CNC(=O)c2ccc(OC)c(C(=O)NCc3ccccc3)c2)cc1 [listing 2 of 2 here] | 0.81 µM

same assay, conditions: MMP13 IC50 (μM), Table 1b

Row | Structure (SMILES) | IC50
77 | COC(=O)c1nc(Cn2c(=O)c(C)c3sc(C(=O)NCc4ccc(F)cc4)cn3c2=O)ncc1OC | 1.85 µM
78 | Cc1c(=O)n(CCS(=O)(=O)c2ccc(F)cc2)c(=O)n2cc(C(=O)NCc3ccc(F)cc3)sc12 | 0.645 µM
79 | Cc1c(=O)n(CCC(=O)c2ccc(F)cc2)c(=O)n2cc(C(=O)NCc3ccc(F)cc3)sc12 | 0.51 µM
80 | C/C=C/Cn1c(=O)c(C)c2sc(C(=O)NCc3ccc(F)cc3)cn2c1=O | 0.53 µM
81 | CCC(C)n1c(=O)c(C)c2sc(C(=O)NCc3ccc(F)cc3)cn2c1=O (stereo not shown) | 0.4 µM
82 | Cc1c(=O)n(CCOc2ccccc2)c(=O)n2cc(C(=O)NCc3ccc(F)cc3)sc12 | 0.058 µM
83 | Cc1c(=O)n(CCS(=O)(=O)Cc2ccccc2)c(=O)n2cc(C(=O)NCc3ccc(F)cc3)sc12 | 0.56 µM
84 | CC/C=C/Cn1c(=O)c(C)c2sc(C(=O)NCc3ccc(F)cc3)cn2c1=O | 0.16 µM
85 | CCC#CCn1c(=O)c(C)c2sc(C(=O)NCc3ccc(F)cc3)cn2c1=O | 0.092 µM
86 | CC(C)=CCn1c(=O)c(C)c2sc(C(=O)NCc3ccc(F)cc3)cn2c1=O | 0.82 µM

same assay, conditions: read-out: MMP 13 IC50 μM; Table III

Row | Structure (SMILES) | IC50
87 | COc1cccc(CNC(=O)c2cc3c(=O)n(Cc4ccc(OC(C)(C)C(=O)O)cc4)c(=O)n(C)c3s2)c1 | 0.0185 µM
88 | COc1ccc(CNC(=O)c2cc3c(=O)n(CCS(=O)(=O)c4ccccc4)c(=O)n(C)c3s2)cc1 | 4 µM
